The numbers were not newly measured in patent US20210268001A1, “USE OF MIOTIC C[…] F2a PRO[…] FOR PREVENTION AND TREATMENT OF MYOPIA” (priority 2018, published 2021), which cites them from elsewhere.

One series deals with cholinergic receptors. On the set-up: unit not given here. The note with it: reversible acetylcholinesterase inhibitors.
Series [1] concerns corneal epithelium epithelial cells.

With `CN(C)C(=O)Oc1cccc([N+](C)(C)C)c1` [neostigmine], in the series with cholinergic receptors, the action time entry was “one to two”. `CCN(C)C(=O)Oc1cccc([C@H](C)N(C)C)c1` [rivastigmine]: the action time result with cholinergic receptors is “one to two”. As for `CC[N+](C)(C)c1cccc(O)c1` [edrophonium], in the series with cholinergic receptors, the action time entry is given as “one to two”. With `O=N[O-].[Na+]` [NaNO2], in series [1] (high concentration of NO (100 mM NaNO2), over the same period (6 hs)), the “cytotoxic effect on epithelial cells” value is “cytotoxic effect”. Further, the “viability of epithelial cells” value in series [1] (low concentrations of NO (1 nM to 1 mM NaNO2), 6 hs after application) is reported as “significantly increased”. Consider `COc1cc2c(cc1OC)C(=O)C(CC1CCN(Cc3ccccc3)CC1)C2` (stereo not shown) [donepezil], for which the action time result in the series on cholinergic receptors was “one to two”. For the compound `CN(C)C(=O)Oc1ccc[n+](C)c1` [pyridostigmine], the action time result in the series on cholinergic receptors is reported as “one to two”.
